In patent US20240239780A1, “MODIFIED FERROPORTIN INHIBITORS” (Vifor (International) AG, priority 2021, published 2024):

Tests used:
ferroportin (Fpn) = target: T1, ferroportin (Fpn) (Mus musculus, UniProt Q9JHI9); assay: Hepcidin Internalization Assay (J774); format: cell-based; conditions: J774 cells, TMR-hepcidin 25 nM, 2 hours; read-out: IC 50, average (AVE) of multiple measurements, hepcidin internalization assay
T1 construct: endogenous in cells; host or cells: J774 mouse macrophage cell line, induced with Fe(III)NTA
T1 sequence (Q9JHI9 1-570): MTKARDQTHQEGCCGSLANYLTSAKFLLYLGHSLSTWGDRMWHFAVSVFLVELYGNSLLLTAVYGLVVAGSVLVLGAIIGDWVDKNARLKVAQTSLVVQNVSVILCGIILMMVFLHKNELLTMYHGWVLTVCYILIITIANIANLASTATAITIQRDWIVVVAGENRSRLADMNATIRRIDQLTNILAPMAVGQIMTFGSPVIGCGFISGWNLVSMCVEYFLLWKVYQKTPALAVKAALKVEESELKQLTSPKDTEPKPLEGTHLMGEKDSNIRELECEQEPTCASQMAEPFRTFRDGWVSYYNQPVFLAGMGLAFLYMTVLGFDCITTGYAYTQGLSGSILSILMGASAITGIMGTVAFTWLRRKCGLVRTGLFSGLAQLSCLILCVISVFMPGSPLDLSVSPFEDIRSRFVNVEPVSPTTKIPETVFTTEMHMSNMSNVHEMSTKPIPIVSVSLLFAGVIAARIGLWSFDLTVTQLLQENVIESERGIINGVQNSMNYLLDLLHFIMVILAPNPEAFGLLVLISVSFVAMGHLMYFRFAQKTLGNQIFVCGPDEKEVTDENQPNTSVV
Text: This cellular assay allows quantification of the binding of hepcidin to ferroportin (Fpn) through microscopic detection of internalization of a fluorescently labeled hepcidin into J774 cells. […] Binding of hepcidin to Fpn triggers internalization and degradation of both hepcidin and Fpn. […] Therefore, microscopic detection of cell-associated TMR fluorescence is a measure of hepcidin binding to Fpn and internalization of hepcidin and Fpn. If TMR-hepcidin is prevented from binding to Fpn, cellular TMR fluorescence remains low (Dürrenberger et al, 2013). The effect of small molecular weight Fpn inhibitor compounds in this assay was evaluated in vitro as described below. […] Cat. 655090) and grown at 37° C. with 5% CO2. After overnight incubation, cells were washed 3 times with pre-warmed DMEM w/o phenol red, 30 μl/well of DMEM w/o phenol red was added after the final wash and 10 μl/well of dilution series of test compounds were added in triplicates. […] Cells were incubated in a total volume of 50 μl at 37° C. with 5% CO2 for 2 hours, then Hoechst 33342 dye was added to a final concentration of 0.5 μg/ml to stain nuclei and further incubated for 10 min. at 37° C. with 5% CO2. […] After removal of the paraformaldehyde solution, cells were washed 3 times with PBS leaving 100 μl per well and the plates were sealed with foil plate seal. […] The acquired image data was analysed with the […] analysis software. […] IC50 values were calculated with the Sum(Mean) raw data using “log(inhibitor) vs. response” curve fitting of Prism 5 software (GraphPad Software Inc., version 5.02). For each data set the fit of the “log(inhibitor) vs. response (three parameters)” model was compared to the fit of the “log(inhibitor) vs. response-Variable slope (four parameters)” model and the IC50 data of the preferred model was used.

human Fpn = human Fpn (Homo sapiens, UniProt Q9NP59); assay: biochemical
human Fpn, sequence (Q9NP59 whole entry): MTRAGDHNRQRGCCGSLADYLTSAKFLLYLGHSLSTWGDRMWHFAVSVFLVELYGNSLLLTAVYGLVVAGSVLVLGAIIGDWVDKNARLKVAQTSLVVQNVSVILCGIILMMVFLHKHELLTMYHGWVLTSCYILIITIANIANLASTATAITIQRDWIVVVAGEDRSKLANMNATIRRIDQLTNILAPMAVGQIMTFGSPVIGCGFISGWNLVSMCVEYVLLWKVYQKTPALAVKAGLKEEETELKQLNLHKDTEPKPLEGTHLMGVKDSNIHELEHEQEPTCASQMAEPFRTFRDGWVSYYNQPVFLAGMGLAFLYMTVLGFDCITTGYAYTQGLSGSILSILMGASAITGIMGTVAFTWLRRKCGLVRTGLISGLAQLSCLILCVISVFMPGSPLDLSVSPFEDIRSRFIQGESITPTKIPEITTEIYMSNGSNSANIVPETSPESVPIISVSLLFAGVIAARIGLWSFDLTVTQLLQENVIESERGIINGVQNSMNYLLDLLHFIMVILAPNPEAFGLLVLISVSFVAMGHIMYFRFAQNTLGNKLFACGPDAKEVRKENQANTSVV
Experimental: This biophysical assay was developed to confirm inhibition of hepcidin binding to ferroportin (Fpn) more directly. Incubation of TMR-hepcidin with purified human Fpn isolated from Pichia pastoris yeast cells expressing human Fpn with a C-terminal FLAG affinity tag (Bonaccorsi di Patti, 2014) leads to increased fluorescence polarization (FP) of the TMR-hepcidin ligand.

[1] = target: human Fpn-GFP fusion protein (Homo sapiens, UniProt Q9NP59); assay: cell-based
human Fpn-GFP fusion protein, sequence (Q9NP59 whole entry, the tested form may be a part): as the sequence (Q9NP59 whole entry) above
Text: Growing HEK-293 #354 cells in doxycycline containing media induced expression of human Fpn-GFP fusion protein on the cell surface.

Row | IC50 (ferroportin (Fpn)) | Structure (SMILES) | also measured
1 | 7 nM | COCCOc1ccccc1-c1ccc2[nH]c(CCNCCc3nc(C(=O)NCc4ncccc4F)co3)nc2c1 [compound 68] | 
2 | 61 nM | O=C(NCc1ccccn1)c1coc(CCNCCc2nc3cc(-c4cccc(F)c4)ccc3[nH]2)n1 [compound 69] | 
3 | 26 nM | COc1cccc(-c2ccc3[nH]c(CCNCCc4nc(C(=O)NCc5ccccn5)co4)nc3c2)c1 [compound 70] | 
4 | 6 nM | CCc1ccccc1-c1ccc2[nH]c(CCNCCc3nc(C(=O)NCc4ncccc4F)co3)nc2c1 [compound 71] | 
5 | 2 nM | O=C(NCc1ncccc1F)c1coc(CCNCCc2nc3cc(C#Cc4ccccc4)ccc3[nH]2)n1 [compound 72] | 
6 | 2 nM | O=C(NCc1ncccc1F)c1coc(CCNCCc2nc3cc(C#Cc4cccnc4)ccc3[nH]2)n1 [compound 73] | 
7 | 7 nM | COc1cccnc1CNC(=O)c1coc(CCNCCc2nc3cc(-c4ccc(C)cc4)ccc3[nH]2)n1 [compound 74] | 
8 | 2 nM | O=C(NCc1ncccc1F)c1coc(CCNCCc2nc3cc(CCc4ccccc4)ccc3[nH]2)n1 [compound 75] | 
9 | 3 nM | CN(C)C(=O)c1cccc(C#Cc2ccc3[nH]c(CCNCCc4nc(C(=O)NCc5ncccc5F)co4)nc3c2)c1 [compound 76] | 
10 | 41 nM | COc1cccc(C#Cc2cccc3nc(CCNCCc4nc(C(=O)NCc5ncccc5F)co4)[nH]c23)c1 [compound 78] | 
11 | 84 nM | O=C(NCc1ncccc1F)c1coc(CCNCCc2nc3cccc(C#Cc4cccc(-c5ncco5)c4)c3[nH]2)n1 [compound 79] | 
12 | 83 nM | O=C(NCc1ncccc1F)c1coc(CCNCCc2nc3cccc(C#Cc4cccnc4)c3[nH]2)n1 [compound 80] | 
13 | 7 nM | O=C(NCc1ncccc1F)c1coc(CCNCCc2nc3cc(-c4cccc5c4OCCO5)ccc3[nH]2)n1 [compound 81] | 
14 | 15 nM | O=C(NCc1ncccc1F)c1coc(CCNCCc2nc3cc(-c4cccc5c4CCCC5)ccc3[nH]2)n1 [compound 82] | 
15 | 6 nM | COc1cccc(-c2ccc3[nH]c(CCNCCc4nc(C(=O)NCc5ncccc5F)co4)nc3c2)c1OC [compound 83] | 
16 | 12 nM | Cc1cccc(-c2ccc3[nH]c(CCNCCc4nc(C(=O)NCc5ncccc5F)co4)nc3c2)c1C [compound 84] | 
17 | 11 nM | O=C(NCc1ncccc1F)c1coc(CCNCCc2nc3cc(-c4cccc(Cl)c4)ccc3[nH]2)n1 [compound 85] | 
18 | 9 nM | O=C(NCc1ncccc1F)c1coc(CCNCCc2nc3cc(-c4ccccc4-c4ncco4)ccc3[nH]2)n1 [compound 86] | 
19 | 14 nM | O=C(NCc1ncccc1F)c1coc(CCNCCc2nc3cc(-c4cccc(-c5ncco5)c4)ccc3[nH]2)n1 [compound 87] | 
20 | 12 nM | O=C(NCc1ncccc1F)c1coc(CCNCCc2nc3cc(-c4ccc5c(c4)OCCO5)ccc3[nH]2)n1 [compound 88] | 
21 | 10 nM | O=C(NCc1ncccc1F)c1coc(CCNCCc2nc3cc(-c4ccc5c(c4)CCCC5)ccc3[nH]2)n1 [compound 89] | 
22 | 5.8 nM | O=C(NCc1ncccc1F)c1coc(CCNCCc2nc3cc(-c4ccc(-c5ncco5)cc4)ccc3[nH]2)n1 [compound 90] | 
23 |  | CC[C@H](C)[C@@H]1NC(=O)[C@@H](NC(=O)[C@@H](NC(=O)[C@@H]2CCCN2C(=O)[C@H](Cc2ccccc2)NC(=O)[C@H](Cc2c[nH]cn2)NC(=O)[C@@H](NC(=O)[C@@H](N)CC(=O)O)[C@@H](C)O)[C@@H](C)CC)CSSC[C@@H](C(=O)N[C@@H](CCCCN)C(=O)N[C@H](C(=O)O)[C@@H](C)O)NC(=O)[C@@H]2CSSC[C@@H]3NC(=O)[C@@H]4CSSC[C@H](NC(=O)[C@H](Cc5ccccc5)NC1=O)C(=O)N[C@@H](CSSC[C@H](NC(=O)[C@H](CCCCN)NC(=O)[C@H](CO)NC(=O)[C@H](CCCNC(=N)N)NC(=O)[C@H](Cc1c[nH]cn1)NC3=O)C(=O)NCC(=O)N[C@@H](CCSC)C(=O)N2)C(=O)NCC(=O)N4 [hepcidin] | IC50 (human Fpn): ~370 nM; EC50 [1]: ~4 nM
